Test system: MDA-MB-231
Test: shRNA barcode abundance ratio t_end/t_zero (depletion over 4 weeks of proliferation) (log2 ratio); higher = less depletion (weaker anti-proliferative effect of the shRNA)
Details: time after t zero 28 days
Procedure, shortened: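 Cells of the MDA-MB-231 line were transduced with a pooled lentiviral shRNA library at an MOI of 0.3 and selected in 0.5 μg/ml puromycin, and genomic DNA was collected from three biological replicates at 5 days (t_zero) and 33 days post-infection. The barcodes were amplified by PCR, labelled with biotin and hybridised for 16 h at 45°C to Geniom One tiling arrays carrying six 25-nt probes per barcode, then detected with streptavidin phycoerythrin. For the abundance ratio, each t_end/t_zero signal ratio is normalised to the subarray median and averaged over background-filtered probes. This average is taken on a log2 scale.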

| Sequence | shRNA barcode abundance ratio t end/t zero (log2) |
| --- | --- |
| GGAGAAATTATTGATCCAAAT (targeted gene: NAIP) | 0.608 |
| GGAGAGAACTGTCATTTCTAA (targeted gene: IGF1R) | 0.393 |
| GGAGTGAGATTGATCTGTTTA (targeted gene: ANXA5) | -0.0616 |
| GGAGTGCTCATTGTGAAGAAA (targeted gene: SORT1) | -0.0388 |
| GGATAGACTGGTCTAGAATAA (targeted gene: RALBP1) | 0.174 |
| GGATATTGAACAGAGTATTAA (targeted gene: ANXA4) | -0.0211 |
| GGATGCTTCTGAATAGAAATA (targeted gene: BIRC7) | 0.0929 |
| GGATGTTGGAAATTACTATTA (targeted gene: HDAC1) | 0.178 |
| GGATTCTCAACACTTTGAATT (targeted gene: ANXA4) | 0.244 |
| GGCAAATCCTTGTTTAACAAA (targeted gene: BIRC6) | 0.616 |
| GGCACAACACTAATTACCATT (targeted gene: PROK2) | 0.0935 |
| GGCAGCTTCCTTGAACCATTA (targeted gene: SPHK1) | -0.334 |
| GGCAGGTATTTGACATATTAA (targeted gene: NFKB1) | 0.217 |
| GGCATCAGATGAATTGTTAAT (targeted gene: IL3) | 0.161 |
| GGCATTAGTTTCTCAGTTAAA (targeted gene: MLH1) | 0.141 |
| GGCCAGAATATCATTGTCATA (targeted gene: RBKS) | -0.309 |
| GGCCATGCCTGTTTACAAGAA (targeted gene: TP73) | -0.24 |
| GGCCATTATGCACAGGTTGAA (targeted gene: CD40LG) | 0.119 |
| GGCCATTCATTTAATGTGCAT (targeted gene: HBXIP) | 0.497 |
| GGCCATTGTCACAGAGGATAA (targeted gene: MLH1) | 0.62 |

| Sequence | shRNA barcode abundance ratio t end/t zero (log2) |
| --- | --- |
| GGCCCAAATTATCAAGCTAAT (targeted gene: CRYAB) | -0.348 |
| GGCCCAAGGTCCAAGTAGAAT (targeted gene: HSPA8) | 0.332 |
| GGCCCAGTGTTTCTTCTGCTT (targeted gene: BIRC5) | -0.948 |
| GGCCCATACCTTCAAATATTA (targeted gene: NFKB1) | 0.381 |
| GGCCTGACAATGGTACCTATT (targeted gene: HDAC3) | -1.93 |
| GGCCTTGGAACTGATGAAGAT (targeted gene: ANXA1) | 0.259 |
| GGCTACAGCCTCGATTTATAT (targeted gene: IGFBP3) | 0.0568 |
| GGCTACTATGACCAATAGAAG (targeted gene: BFAR) | 0.107 |
| GGCTAGACTTAGATTCATTAA (targeted gene: VHL) | 0.486 |
| GGCTTTACTCCGTAACAGATT (targeted gene: RHOA) | -2.14 |
| GGCTTTGTCTTTACAGGTAAA (targeted gene: NAIP) | 0.603 |
| GGGAATCCAGTGTGTGAAGAA (targeted gene: RELA) | 0.121 |
| GGGAATGATCAGATTCCTTTA (targeted gene: BFAR) | 0.171 |
| GGGAGGTAAATCAACATATAT (targeted gene: MSH2) | 0.109 |
| GGGCAAGTTTCCATCATCTAT (targeted gene: TDGF1) | -0.11 |
| GGGCATTTGAGAAATGCATAT (targeted gene: IL7) | 0.11 |
| GGGTAGAAATTGGCTTCATAA (targeted gene: WRN) | -0.246 |
| GGTAAAGATGGCAAACAATAT (targeted gene: IL7) | 0.391 |
| GGTAGCAATTGCCTGAATAAT (targeted gene: IL7) | -0.149 |
| GGTATTCTCATCAAGAAACTT (targeted gene: BCL2A1) | 0.349 |

| Sequence | shRNA barcode abundance ratio t end/t zero (log2) |
| --- | --- |
| GGTCACTTTGTATATAGAATT (targeted gene: HBXIP) | 0.371 |
| GGTCTCCTTAGGGAACATAAA (targeted gene: ATM) | -0.27 |
| GGTCTTACTGAAGTAACACAA (targeted gene: TAX1BP1) | 0.346 |
| GGTGAAGATATATTCCTCCAA (targeted gene: PTEN) | 0.129 |
| GGTGACTATACAGTCATTTAA (targeted gene: ATM) | -0.167 |
| GGTGCCTTGAGGAATACAGAA (targeted gene: NT5C3) | 0.235 |
| GGTGTCTTTACCAAACTTATT (targeted gene: HSPA9) | -0.751 |
| GGTTTGTGCCTTACATTATTA (targeted gene: PSEN1) | -1.92 |
| TACTGTCTTTGAGAACTATAT (targeted gene: RHOC) | 0.0813 |
| TCAAATTGCGGCACATGTCAT (targeted gene: CD40LG) | -0.0903 |
| TCAATCAAAGGGAAACTTGAA (targeted gene: TPT1) | -0.105 |
| TCACACTGGTTCTCAATGAAA (targeted gene: BAG1) | 0.198 |
| TCACAGAGCTTTGTAAGCAAA (targeted gene: NME5) | 0.139 |
| TCAGGAAATGTTATCAGCAAA (targeted gene: BNIP2) | 0.477 |
| TCCAATTAACTTCTCCATAAT (targeted gene: MTL5) | 0.712 |
| TCTCTTAAAGTTGATATCTTA (targeted gene: TNFAIP3) | 0.213 |
| TCTGAGGAAGAGATCATCAAA (targeted gene: PEA15) | -0.849 |
| TGGGAAGAACTTTAAGGATAT (targeted gene: SORT1) | -0.167 |
| TGTTAACAAATGTGGCAATTA (targeted gene: TPT1) | 0.164 |

From the supplement of paper PMC2824726
